# “Also recorded” adds a separate entry of the source.
# Experiments:
# [1] = cited from earlier work
# [2] = test system: HOS-FRα tumors; assay: subcutaneous HOS-FRα osteosarcoma xenograft, E2 CAR-T cells plus EC17; assay type: in vivo
# From the text: A dosing regimen is shown in FIG. 21 which includes administration of about 5 million E2 CAR T cells at day −3; administration of EC17 at days 0, 3, 7, 14, 17, 21, 28, 31 and 35. Sequential escalating doses of EC17 will be administered under the following rules: If no CRS or neurotoxicity, advance through EC17 dose escalation as planned. If CRS grade≤2, administer all subsequent EC17 doses at die Sequence level that provoked the non-serious CRS in the stone cycle. If CRS grade>2, cancel further EC17 doses in the current Cycle, and commence all subsequent Cycles at the next highest Sequence below that which provoked the severe CRS (sCRS).
# HOS-FRα (i.e. HOS-143b-LV-FRα) is a subclone of HOS-143B (ATCC CRL-8303) stably transfected with human FRα. HOS-143B was originally derived from a […] with osteosarcoma. The tumor cells were grown in folate-deficient RPMI 1640 with 5% FBS at 37° C. in a 5% CO2 humidified atmosphere. For the in-vivo study, tumor cells were inoculated subcutaneously at 1×10^6 cells per animal.
# EGFRt-sorted anti-FITC E2 scFv-CAR T cells were frozen in a T-cell freezing medium. Upon arrival, vials of frozen CAR-T cells were immediately stored at −80° C. The CAR-T cells were quickly thawed at 37° C., washed twice with PBS, and used for animal injection at 6 million viable EGFRt+E2 CAR-T cells (CD4/CD8 at ~1:1) per animal. A small aliquot was taken on the day infusion for flow cytometric analysis of E2-CAR T-cell phenotypes.
# EC17 dosing solutions were prepared when dosing began by weighing appropriate amounts of each compound, reconstituting in PBS, pH 7.4, sterile filtering the drug solution through a 0.22 pm PVDF syringe filter, and freezing aliquots for each day of dosing at −20° C.
# All EC17 doses were given towards the end of day (3-4 PM) to allow potential CRS (cytokine release syndrome) to develop overnight.
# Tumor growth, body weight, and overall assessment: Tumor sizes were monitored 2-3 times/week and body weight measured 2-3 times/week. On the days immediately after any EC17 dose, body weight measurement was taken daily and attention was given to gross animal morphology and behavior.
# Euthanasia: Euthanasia was performed when mice had lost ≥20% of their weight, when tumors reached ≥1500 mm^3. Euthanasia was also performed if mice lost a lot of weight in a short duration (e.g., due to severe head-tilt), or when they approached moribund conditions per CRS grading system.
# All animal care and use were performed according to NIH guidelines and in compliance with protocols approved by the Purdue University Animal Use and Care Committee. Female 4 to 5-week-old NOD/SCID gamma (NSG™) mice (stock number:005557) were purchased from The Jackson Faboratory (Bar Harbor, ME). Unless specifically indicated, all animals were maintained on a FA-deficient diet (TestDiet, St. Fouis, MO) upon arrival and throughout the study. To establish subcutaneous xenografts, MDA-MB-231 and HOS-FRα were implanted in the right flank region at 2.5×10^6 and 1×10^6 cells per animal, respectively. For intravenous xenografts, THP1-FRβ) cells were inoculated at 5×10^6 cells per animal. Subcutaneous tumors were measured 2-3 times per week with a caliper and calculated using the ellipsoidal formula (length×width2)/2. […] All animal doses (CAR-T cells, EC17, sodium fluorescein) were given intravenously.
# In a therapeutic setting, EC17 CAM can be given before or after CAR-T cell injection. […]
# [3] = test system: tumor cell surface FR; settings: cited from earlier work
# [4] = E2 CAR-T cells + EC17 5/100/1000 nmol/kg, M/Th/M (Cohort 2)
compound,measurement,setting,value
"NC1=NC2N=CC(CNc3ccc(C(=O)N[C@@H](CCC(=O)NCCNC(=S)Nc4ccc(-c5c6ccc(=O)cc-6oc6cc(O)ccc56)c(C(=O)O)c4)C(=O)O)cc3)=NC2C(=O)N1 (stereo partly shown) [EC17, FA-(γ)-ethylenediamine-FITC]",clearance from circulation,[1]; 0.1 mg/kg intravenous,rapid clearance from circulation
same,time EC17 fluorescence signal observed at the site of the tumor,"[1]; after administration, latest time-point evaluated",up to 5 hours
same,time to real-time visualization of malignant lesions,[1]; post EC17 administration,≤ 2 h
same,elimination half-life,"[1]; single 10-minute intravenous infusion of 0.1 mg/kg, plasma",1.45 h
same,body weight loss or CRS,[2]; [4],without body weight loss or CRS
same,tumor volume of HOS-FRα tumors,[2]; [4],significant tumor regression
same,CAR-T cell expansion in whole blood (flow cytometry),"[2]; EC17 dose escalation M/Th/M, at euthanasia days 33 and 47",EC17-dependent CAR-T cell expansion up to day 47 but higher on day 33
same,CRS or body weight loss,"[2]; ~6 million E2-CAR-T cells + EC17 5/10/100, 5/30/300, 5/50/500 nmol/kg in Cycles 1-3, M/Th/M",no CRS or body weight loss
same,HOS-FRα tumor growth,"[2]; ~6 million E2-CAR-T cells + EC17 5/10/100, 5/30/300, 5/50/500 nmol/kg in Cycles 1-3, M/Th/M, 6-day break",significant delay in tumor growth within the first two cycles of treatment; also recorded: stopped responding to treatment in Cycle 3
same,affinity for tumor cell surface FR,[3],sub-nanomolar

# Source: patent publication US20260263517A1, “THERAPEUTIC METHODS WITH TARGET-LINKED SMALL MOLECULES AND ANTI-TARGET CAR T CELLS” (Seattle Children's Hospital (dba Seattle Children's …, priority 2022, published 2026)
